We go through 2 molecules from PMC5909127, “Optimization of a “bump-and-hole” approach to allele-selective BET bromodomain inhibition” (Chemical Science, 2018).

Molecules are shown by their SMILES. pIC50: −log10 of the molar value.

Assay [1] deals with WT BET bromodomains (BD1 and BD2 of BRD2, BRD3 and BRD4). The assay can be described thus: competitive AlphaLISA (Bio-JQ1 displacement). It counts as binding, human. Conditions: mean and SD of all somatic bromodomains; active enantiomer concentration. (In general: In Alpha technology, singlet oxygen from a donor bead excites a nearby acceptor bead.)
The target in the next assay is BRD3 BD1 WT (Homo sapiens, UniProt Q15059). In words: competitive AlphaLISA. It counts as binding.
Chain of BRD3 BD1 WT (Q15059 24-144): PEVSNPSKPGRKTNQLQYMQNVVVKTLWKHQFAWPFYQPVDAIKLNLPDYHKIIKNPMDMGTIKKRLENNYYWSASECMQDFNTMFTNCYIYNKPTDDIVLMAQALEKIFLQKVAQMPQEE
Another assay addresses BRDT BD1 WT (Homo sapiens, UniProt Q58F21). In words: competitive AlphaLISA. In kind it is binding.
Another assay has as its target NK2 (h) (Homo sapiens, UniProt P21452). In words: CEREP ExpresSProfile. The settings on record: read-out: Mean % of control specific binding (±SD).
A further assay deals with delta (DOP) (h) (Homo sapiens, UniProt P41143). In words: CEREP ExpresSProfile. The settings on record: read-out: Mean % of control specific binding (±SD).
Chain of delta (DOP) (h) (P41143 whole entry): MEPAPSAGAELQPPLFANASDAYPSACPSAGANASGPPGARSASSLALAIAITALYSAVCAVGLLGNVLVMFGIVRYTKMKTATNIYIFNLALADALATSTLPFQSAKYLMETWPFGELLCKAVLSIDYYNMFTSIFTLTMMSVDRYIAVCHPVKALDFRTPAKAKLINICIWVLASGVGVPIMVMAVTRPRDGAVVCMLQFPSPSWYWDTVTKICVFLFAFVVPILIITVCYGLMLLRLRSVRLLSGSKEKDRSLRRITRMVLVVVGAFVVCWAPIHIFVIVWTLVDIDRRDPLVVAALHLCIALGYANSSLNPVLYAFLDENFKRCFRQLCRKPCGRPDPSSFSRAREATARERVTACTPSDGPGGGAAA
Another assay concerns the target 5-HT2A (h) (Homo sapiens, UniProt P28223). The assay can be described thus: CEREP ExpresSProfile. The settings on record: read-out: Mean % of control specific binding (±SD).
Another assay deals with KV channel. In words: CEREP ExpresSProfile. It counts as binding. Conditions: 1 µM.
The target in the next assay is VPAC1 (VIP1) (h) (Homo sapiens, UniProt P32241). The assay can be described thus: CEREP ExpresSProfile. The settings on record: read-out: Mean % of control specific binding (±SD).
Chain of VPAC1 (VIP1) (h) (P32241 31-457): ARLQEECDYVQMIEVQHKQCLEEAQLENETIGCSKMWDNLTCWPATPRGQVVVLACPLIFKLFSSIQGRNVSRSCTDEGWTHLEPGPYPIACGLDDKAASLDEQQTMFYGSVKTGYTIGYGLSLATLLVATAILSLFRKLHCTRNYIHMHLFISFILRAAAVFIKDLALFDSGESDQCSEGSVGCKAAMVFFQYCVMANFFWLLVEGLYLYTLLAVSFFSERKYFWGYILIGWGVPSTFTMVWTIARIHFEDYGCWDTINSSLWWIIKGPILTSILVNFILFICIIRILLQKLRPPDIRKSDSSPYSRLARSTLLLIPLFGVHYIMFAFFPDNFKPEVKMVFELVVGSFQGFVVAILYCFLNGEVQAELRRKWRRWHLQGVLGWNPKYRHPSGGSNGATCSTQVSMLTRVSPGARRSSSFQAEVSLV
Another assay concerns the target 5-HT transporter (h) (Homo sapiens, UniProt P31645). In words: CEREP ExpresSProfile. Conditions: read-out: Mean % of control specific binding (±SD).

Chain of 5-HT transporter (h) (P31645 whole entry): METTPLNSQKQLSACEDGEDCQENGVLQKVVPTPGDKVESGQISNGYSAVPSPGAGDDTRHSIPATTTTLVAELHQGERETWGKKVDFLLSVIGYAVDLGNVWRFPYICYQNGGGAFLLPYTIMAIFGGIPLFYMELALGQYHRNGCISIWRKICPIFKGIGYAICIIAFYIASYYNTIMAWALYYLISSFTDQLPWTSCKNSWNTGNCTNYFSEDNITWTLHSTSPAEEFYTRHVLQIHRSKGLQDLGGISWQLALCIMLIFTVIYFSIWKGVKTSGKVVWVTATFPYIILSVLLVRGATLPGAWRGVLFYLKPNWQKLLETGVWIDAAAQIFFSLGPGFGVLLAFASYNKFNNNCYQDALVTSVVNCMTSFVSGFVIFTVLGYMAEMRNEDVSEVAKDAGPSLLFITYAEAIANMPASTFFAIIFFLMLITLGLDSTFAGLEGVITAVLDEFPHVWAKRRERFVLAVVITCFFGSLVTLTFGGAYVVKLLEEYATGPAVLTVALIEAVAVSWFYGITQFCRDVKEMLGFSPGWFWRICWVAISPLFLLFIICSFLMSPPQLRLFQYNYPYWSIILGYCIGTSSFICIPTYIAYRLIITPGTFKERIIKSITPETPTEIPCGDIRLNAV
Chain of 5-HT2A (h) (P28223 whole entry): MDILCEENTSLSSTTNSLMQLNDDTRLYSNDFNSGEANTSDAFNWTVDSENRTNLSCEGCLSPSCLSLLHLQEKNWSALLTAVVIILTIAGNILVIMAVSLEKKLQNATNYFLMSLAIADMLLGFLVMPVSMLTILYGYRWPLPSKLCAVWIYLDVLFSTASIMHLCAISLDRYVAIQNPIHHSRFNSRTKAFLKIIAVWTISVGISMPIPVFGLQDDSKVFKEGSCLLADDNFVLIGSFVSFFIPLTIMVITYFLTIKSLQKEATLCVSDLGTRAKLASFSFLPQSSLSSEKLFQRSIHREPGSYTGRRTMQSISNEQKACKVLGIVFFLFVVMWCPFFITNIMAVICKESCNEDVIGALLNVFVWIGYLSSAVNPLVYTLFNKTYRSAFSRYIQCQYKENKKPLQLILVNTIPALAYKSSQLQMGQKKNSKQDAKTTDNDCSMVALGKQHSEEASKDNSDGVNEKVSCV
Chain of NK2 (h) (P21452 whole entry): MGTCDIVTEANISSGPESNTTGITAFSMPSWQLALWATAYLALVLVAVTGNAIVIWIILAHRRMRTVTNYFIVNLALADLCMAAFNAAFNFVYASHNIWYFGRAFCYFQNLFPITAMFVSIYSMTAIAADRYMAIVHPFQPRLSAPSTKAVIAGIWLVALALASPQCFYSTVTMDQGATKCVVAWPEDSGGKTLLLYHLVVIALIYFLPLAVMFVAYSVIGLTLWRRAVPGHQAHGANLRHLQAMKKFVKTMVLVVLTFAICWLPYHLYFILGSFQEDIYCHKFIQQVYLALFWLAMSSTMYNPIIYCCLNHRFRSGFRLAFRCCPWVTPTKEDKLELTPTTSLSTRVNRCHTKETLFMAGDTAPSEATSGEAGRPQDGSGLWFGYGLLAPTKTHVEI
Description for 5-HT2A (h): (§1) Receptor Reference Compound Mean % of control specific
Receptor & Ion-Channel Screening
CEREP ExpresSProfile panel
Description for KV channel: as §1
Receptor & Ion-Channel Screening
CEREP ExpresSProfile panel
Description for VPAC1 (VIP1) (h): as §1
Receptor & Ion-Channel Screening
CEREP ExpresSProfile panel
Description for delta (DOP) (h): as §1
Receptor & Ion-Channel Screening
CEREP ExpresSProfile panel

A word on the pIC50: it is the IC50 on a negative log10 scale, so that one unit is a factor of ten. A lower pIC50 goes with a high IC50. In the case of `CC[C@@H](C(=O)OC)[C@@H]1N=C(c2ccc(Cl)cc2)c2ccc(OC)cc2-n2c(C)nnc21` (racemic) [Compound 8], in assay [1], the “AlphaLISA pIC50 ± SD WT” value is given as 5.5 ± 0.2. The pIC50 on BRD3 BD1 WT is 5.60; at BRDT BD1 WT, 4.80.
`COC(=O)[C@H](C)[C@@H]1N=C(c2ccc(Cl)cc2)c2ccc(OC)cc2-n2c(C)nnc21` [(2R,3S)-7]: the remaining activity at 1 µM at NK2 (h) was found to be 101%; at delta (DOP) (h), 100%; on 5-HT2A (h), 100%; at VPAC1 (VIP1) (h) it was 98%; on 5-HT transporter (h) it was 96%. In the assay on KV channel, the “Mean % of control specific binding (±SD)” value is 100 (0) %.
